We go through six compounds from article PMC6364417, “Kinase inhibitor library screening identifies synergistic drug combinations effective in sensitive and resistant melanoma cells” (Journal of Experimental & Clinical Cancer Research : CR, 2019).

Holding throughout (experiment): Kinase inhibitor library screening, PrestoBlue cell viability, 1 or 10 μM, 72 h
Assay [1] relates to A375-GP cells (Dabrafenib-resistant). The settings on record: A375 GP.
The subject of assay [2] is A375-XP cells (Vemurafenib-resistant). The settings on record: A375 XP.
Assay [3] has as its system IGR37-GP cells (Dabrafenib-resistant). The settings on record: IGR37 GP.
The test system of the next assay is IGR37 cells (parental). The settings on record: IGR37 Parental.
The subject of assay [4] is IGR37-XP cells (Vemurafenib-resistant). The settings on record: IGR37 XP.
For assay [5], the system named is 501Mel-GP cells (Dabrafenib-resistant). The settings on record: 501Mel GP.
The subject of assay [6] is 501Mel-XP cells (Vemurafenib-resistant). The settings on record: 501Mel XP.
Another assay relates to 501Mel cells (parental). The settings on record: 501Mel Parental. The method in brief:
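Treatment: 72 h with inhibitor. Detection: PrestoBlue, plate reader. Output: viability as % untreated control. Replicates: duplicate minimum. Lines: parental plus Vemurafenib- or Dabrafenib-resistant derivatives.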

For a further assay, the system named is A375 cells (parental). The settings on record: A375 Parental.

Consider `COc1cc2nccc(Oc3ccc(NC(=O)NC4CC4)c(Cl)c3)c2cc1C(N)=O` [E7080 (Lenvatinib)], for which the “cell viability (kinase inhibitor library screening)” value in assay [1] (10μΜ, in %) is reported as 94.8; in assay [2] (10μΜ, in %) it was 109.2; in assay [3] (1μΜ, in %), 97.5; in [3] (10μΜ, in %), 86.5; with IGR37 cells (parental) (1μΜ, in %) it was 102.9; in the assay with IGR37 cells (parental) (10μΜ, in %), 104.3. For the same compound, the “cell viability (kinase inhibitor library screening)” value in assay [4] (1μΜ, in %) came to 97.7; in assay [4] (10μΜ, in %), 58.8; in assay [5] (1μΜ, in %), 106.1; in assay [5] (10μΜ, in %) it was 90.9; in assay [6] (1μΜ, in %), 98.9; in assay [6] (10μΜ, in %), 87.0. Further, the “cell viability (kinase inhibitor library screening)” value with 501Mel cells (parental) (1μΜ, in %) stood at 106.1; in the assay on 501Mel cells (parental) (10μΜ, in %), 105.7; with A375 cells (parental) (1μΜ, in %), 103.7; in the assay on A375 cells (parental) (10μΜ, in %), 95.8.

Consider `COCCNCc1ccc(-c2cc3nccc(Oc4ccc(NC(=S)NC(=O)Cc5ccc(F)cc5)cc4F)c3s2)nc1` [MGCD-265], for which the “cell viability (kinase inhibitor library screening)” value in assay [1] (1μΜ, 72 h) is 95.5%; in assay [1] (10μΜ, 72 h), 85.6%; in assay [2] (1μΜ, 72 h) it was 104.8%; in assay [2] (10μΜ, 72 h), 98.2%; in assay [3] (1μΜ, 72 h) it was 91.8%; in assay [3] (10μΜ, 72 h) it was 78.3%. Further, the “cell viability (kinase inhibitor library screening)” value is 96.8% in the assay on IGR37 cells (parental) (1μΜ, 72 h); 92.1% in the assay with IGR37 cells (parental) (10μΜ, 72 h); 91.5% in assay [4] (1μΜ, 72 h); 50.3% in assay [4] (10μΜ, 72 h); 89.8% in [5] (1μΜ, 72 h); 68.8% in assay [5] (10μΜ, 72 h). Moreover, the “cell viability (kinase inhibitor library screening)” value is given as 76.7% in assay [6] (1μΜ, 72 h); 64.2% in assay [6] (10μΜ, 72 h); 104.7% with 501Mel cells (parental) (1μΜ, 72 h); 94.4% in the assay on 501Mel cells (parental) (10μΜ, 72 h); 83.0% in the assay with A375 cells (parental) (10μΜ, 72 h).

On to `CC[C@@H]1C(=O)N(C)c2cnc(Nc3ccc(C(=O)NC4CCN(C)CC4)cc3OC)nc2N1C1CCCC1` [BI 2536], for which the “Cell viability in kinase inhibitor library screening, A375 GP, 1μΜ” value in [1] (1μΜ, 72 h) was determined as 31.1. Besides, the “Cell viability in kinase inhibitor library screening, A375 GP, 10μΜ” value in assay [1] (10μΜ, 72 h) is given as 15.5. For the same compound, the “Cell viability in kinase inhibitor library screening, A375 XP, 1μΜ” value in assay [2] (1μΜ, 72 h) is recorded as 42.2. Besides, the “Cell viability in kinase inhibitor library screening, A375 XP, 10μΜ” value in assay [2] (10μΜ, 72 h) came to 8.5. The Cell viability in kinase inhibitor library screening, IGR37 GP, 10μΜ in assay [3] (10μΜ, 72 h) is 2.8%. For the same compound, the “Cell viability in kinase inhibitor library screening, IGR37 GP, 1μΜ” value in assay [3] (1μΜ, 72 h, in %) is 82.9. The “Cell viability in kinase inhibitor library screening, IGR37 Parental, 1μΜ” value in the assay on IGR37 cells (parental) (1μΜ, 72 h, in %) is on record as 71.6. Also, the “Cell viability in kinase inhibitor library screening, IGR37 Parental, 10μΜ” value in the assay with IGR37 cells (parental) (10μΜ, 72 h, in %) was 1.3. This compound displayed a Cell viability in kinase inhibitor library screening, IGR37 XP, 10μΜ in [4] (10μΜ, 72 h) of 1.5%. Also, the “Cell viability in kinase inhibitor library screening, IGR37 XP, 1μΜ” value in assay [4] (1μΜ, 72 h, in %) came out at 76.3. Further, the “Cell viability in kinase inhibitor library screening, 501Mel GP, 1μΜ” value in assay [5] (1μΜ, 72 h, in %) is listed as 52.3. For the same compound, in assay [5] (10μΜ, 72 h, in %), the “Cell viability in kinase inhibitor library screening, 501Mel GP, 10μΜ” value amounted to 0.263. Moreover, the “Cell viability in kinase inhibitor library screening, 501Mel XP, 1μΜ” value in assay [6] (1μΜ, 72 h, in %) was determined as 29.2. Besides, the “Cell viability in kinase inhibitor library screening, 501Mel XP, 10μΜ” value in assay [6] (10μΜ, 72 h, in %) is listed as -0.237. The “Cell viability in kinase inhibitor library screening, 501Mel Parental, 1μΜ” value with 501Mel cells (parental) (1μΜ, 72 h, in %) turned out to be 77.3. Besides, in the assay with 501Mel cells (parental) (10μΜ, 72 h, in %), the “Cell viability in kinase inhibitor library screening, 501Mel Parental, 10μΜ” value turned out to be 1.6. The “Cell viability in kinase inhibitor library screening, A375 Parental, 10μΜ” value with A375 cells (parental) (10μΜ, 72 h) was found to be 30.1. Also, in the assay on A375 cells (parental) (1μΜ, 72 h), the “Cell viability in kinase inhibitor library screening, A375 Parental, 1μΜ” value was found to be 31.0.

Regarding `O=C(O)c1ccc(Nc2ncc3c(n2)-c2ccc(Cl)cc2C(c2c(F)cccc2F)=NC3)cc1` [MLN8054], the “cell viability (kinase inhibitor library screening)” value is 70.2% in assay [1] (1μΜ, 72 h); 45.2% in assay [1] (10μΜ, 72 h); 75.7% in assay [2] (1μΜ, 72 h); 52.2% in [2] (10μΜ, 72 h); 94.0% in assay [3] (1μΜ, 72 h); 66.7% in assay [3] (10μΜ, 72 h). Moreover, the “cell viability (kinase inhibitor library screening)” value in the assay with IGR37 cells (parental) (1μΜ, 72 h) is given as 98.2%; with IGR37 cells (parental) (10μΜ, 72 h), 64.8%; in assay [4] (1μΜ, 72 h), 94.1%; in [4] (10μΜ, 72 h) it was 42.0%; in assay [5] (1μΜ, 72 h), 86.0%; in assay [5] (10μΜ, 72 h), 65.6%. The “cell viability (kinase inhibitor library screening)” value in assay [6] (1μΜ, 72 h) is 74.5%; in assay [6] (10μΜ, 72 h) it was 59.4%; in the assay with 501Mel cells (parental) (1μΜ, 72 h) it was 86.3%; in the assay on 501Mel cells (parental) (10μΜ, 72 h) it was 77.0%; in the assay with A375 cells (parental) (10μΜ, 72 h) it was 41.6%; in the assay with A375 cells (parental) (1μΜ, 72 h), 66.5%.

On to `C[C@@H](Oc1cc(-n2cnc3ccc(CN4CCN(C)CC4)cc32)sc1C(N)=O)c1ccccc1C(F)(F)F` [GSK461364], for which the “Cell viability in kinase inhibitor library screening, A375 GP, 1μΜ” value in assay [1] (1μΜ, 72 h) stood at 12.0. Further, in [1] (10μΜ, 72 h), the “Cell viability in kinase inhibitor library screening, A375 GP, 10μΜ” value came out at 26.2. Besides, in [2] (1μΜ, 72 h), the “Cell viability in kinase inhibitor library screening, A375 XP, 1μΜ” value is given as 26.8. In assay [2] (10μΜ, 72 h), the “Cell viability in kinase inhibitor library screening, A375 XP, 10μΜ” value amounted to 31.7. The same compound yielded a Cell viability in kinase inhibitor library screening, IGR37 GP, 10μΜ in assay [3] (10μΜ, 72 h) of 69.3%. For the same compound, the “Cell viability in kinase inhibitor library screening, IGR37 GP, 1μΜ” value in assay [3] (1μΜ, 72 h, in %) is listed as 91.5. Besides, the “Cell viability in kinase inhibitor library screening, IGR37 Parental, 1μΜ” value in the assay on IGR37 cells (parental) (1μΜ, 72 h, in %) was 29.0. Also, in the assay with IGR37 cells (parental) (10μΜ, 72 h, in %), the “Cell viability in kinase inhibitor library screening, IGR37 Parental, 10μΜ” value was 57.5. Moreover, the Cell viability in kinase inhibitor library screening, IGR37 XP, 10μΜ in assay [4] (10μΜ, 72 h) is 28.5%. For the same compound, in [4] (1μΜ, 72 h, in %), the “Cell viability in kinase inhibitor library screening, IGR37 XP, 1μΜ” value turned out to be 70.5. Further, in [5] (1μΜ, 72 h, in %), the “Cell viability in kinase inhibitor library screening, 501Mel GP, 1μΜ” value was determined as 14.1. Besides, the “Cell viability in kinase inhibitor library screening, 501Mel GP, 10μΜ” value in assay [5] (10μΜ, 72 h, in %) came out at 31.3. The “Cell viability in kinase inhibitor library screening, 501Mel XP, 1μΜ” value in assay [6] (1μΜ, 72 h, in %) was 8.8. In addition, the “Cell viability in kinase inhibitor library screening, 501Mel XP, 10μΜ” value in assay [6] (10μΜ, 72 h, in %) was found to be 5.4. Moreover, the “Cell viability in kinase inhibitor library screening, 501Mel Parental, 1μΜ” value in the assay with 501Mel cells (parental) (1μΜ, 72 h, in %) is listed as 18.0. Also, the “Cell viability in kinase inhibitor library screening, 501Mel Parental, 10μΜ” value in the assay on 501Mel cells (parental) (10μΜ, 72 h, in %) is given as 16.7. Also, in the assay on A375 cells (parental) (10μΜ, 72 h), the “Cell viability in kinase inhibitor library screening, A375 Parental, 10μΜ” value is 29.0. The “Cell viability in kinase inhibitor library screening, A375 Parental, 1μΜ” value in the assay on A375 cells (parental) (1μΜ, 72 h) turned out to be 8.9.

Take `FC(F)c1nc2ccccc2n1-c1nc(N2CCOCC2)nc(N2CCOCC2)n1` [ZSTK474]: the “Cell viability in kinase inhibitor library screening, A375 GP, 1μΜ” value in assay [1] (1μΜ, 72 h) worked out at 69.9. In assay [1] (10μΜ, 72 h), the “Cell viability in kinase inhibitor library screening, A375 GP, 10μΜ” value is on record as 13.0. In addition, the “Cell viability in kinase inhibitor library screening, A375 XP, 1μΜ” value in assay [2] (1μΜ, 72 h) was found to be 67.6. In [2] (10μΜ, 72 h), the “Cell viability in kinase inhibitor library screening, A375 XP, 10μΜ” value stood at 15.9. This compound also came in with a Cell viability in kinase inhibitor library screening, IGR37 GP, 10μΜ in assay [3] (10μΜ, 72 h) of 8.8%. For the same compound, the “Cell viability in kinase inhibitor library screening, IGR37 GP, 1μΜ” value in assay [3] (1μΜ, 72 h, in %) turned out to be 80.3. In the assay with IGR37 cells (parental) (1μΜ, 72 h, in %), the “Cell viability in kinase inhibitor library screening, IGR37 Parental, 1μΜ” value was found to be 77.8. Further, the “Cell viability in kinase inhibitor library screening, IGR37 Parental, 10μΜ” value with IGR37 cells (parental) (10μΜ, 72 h, in %) was 23.8. This compound had a Cell viability in kinase inhibitor library screening, IGR37 XP, 10μΜ in [4] (10μΜ, 72 h) of 4.7%. For the same compound, the “Cell viability in kinase inhibitor library screening, IGR37 XP, 1μΜ” value in [4] (1μΜ, 72 h, in %) came to 71.7. For the same compound, the “Cell viability in kinase inhibitor library screening, 501Mel GP, 1μΜ” value in assay [5] (1μΜ, 72 h, in %) was found to be 45.9. Further, the “Cell viability in kinase inhibitor library screening, 501Mel GP, 10μΜ” value in assay [5] (10μΜ, 72 h, in %) is given as 9.4. For the same compound, in assay [6] (10μΜ, 72 h, in %), the “Cell viability in kinase inhibitor library screening, 501Mel XP, 10μΜ” value came out at 2.5. For the same compound, the “Cell viability in kinase inhibitor library screening, 501Mel Parental, 1μΜ” value with 501Mel cells (parental) (1μΜ, 72 h, in %) is listed as 66.9. For the same compound, in the assay with 501Mel cells (parental) (10μΜ, 72 h, in %), the “Cell viability in kinase inhibitor library screening, 501Mel Parental, 10μΜ” value is listed as 8.9. Besides, in the assay with A375 cells (parental) (10μΜ, 72 h), the “Cell viability in kinase inhibitor library screening, A375 Parental, 10μΜ” value was 16.3. In addition, the “Cell viability in kinase inhibitor library screening, A375 Parental, 1μΜ” value with A375 cells (parental) (1μΜ, 72 h) is 76.3.
